Measured values reported in ChEMBL document CHEMBL2074333, “BPR0L075, a novel synthetic indole compound with antimitotic activity in human cancer cells, exerts effective antitumoral activity in vivo” (Cancer Res, 2004).

Legend:
[1] = molecular target: T1, ATP-dependent translocase ABCB1 (Homo sapiens, UniProt P08183); assay: TP_TRANSPORTER: drug resistance in KB-VIN10 cells; type: functional, cell-based
[2] = molecular target: T1, ATP-dependent translocase ABCB1; assay: TP_TRANSPORTER: drug resistance in KB-TAX50 cells; type: functional, cell-based

T1 sequence (P08183 whole entry): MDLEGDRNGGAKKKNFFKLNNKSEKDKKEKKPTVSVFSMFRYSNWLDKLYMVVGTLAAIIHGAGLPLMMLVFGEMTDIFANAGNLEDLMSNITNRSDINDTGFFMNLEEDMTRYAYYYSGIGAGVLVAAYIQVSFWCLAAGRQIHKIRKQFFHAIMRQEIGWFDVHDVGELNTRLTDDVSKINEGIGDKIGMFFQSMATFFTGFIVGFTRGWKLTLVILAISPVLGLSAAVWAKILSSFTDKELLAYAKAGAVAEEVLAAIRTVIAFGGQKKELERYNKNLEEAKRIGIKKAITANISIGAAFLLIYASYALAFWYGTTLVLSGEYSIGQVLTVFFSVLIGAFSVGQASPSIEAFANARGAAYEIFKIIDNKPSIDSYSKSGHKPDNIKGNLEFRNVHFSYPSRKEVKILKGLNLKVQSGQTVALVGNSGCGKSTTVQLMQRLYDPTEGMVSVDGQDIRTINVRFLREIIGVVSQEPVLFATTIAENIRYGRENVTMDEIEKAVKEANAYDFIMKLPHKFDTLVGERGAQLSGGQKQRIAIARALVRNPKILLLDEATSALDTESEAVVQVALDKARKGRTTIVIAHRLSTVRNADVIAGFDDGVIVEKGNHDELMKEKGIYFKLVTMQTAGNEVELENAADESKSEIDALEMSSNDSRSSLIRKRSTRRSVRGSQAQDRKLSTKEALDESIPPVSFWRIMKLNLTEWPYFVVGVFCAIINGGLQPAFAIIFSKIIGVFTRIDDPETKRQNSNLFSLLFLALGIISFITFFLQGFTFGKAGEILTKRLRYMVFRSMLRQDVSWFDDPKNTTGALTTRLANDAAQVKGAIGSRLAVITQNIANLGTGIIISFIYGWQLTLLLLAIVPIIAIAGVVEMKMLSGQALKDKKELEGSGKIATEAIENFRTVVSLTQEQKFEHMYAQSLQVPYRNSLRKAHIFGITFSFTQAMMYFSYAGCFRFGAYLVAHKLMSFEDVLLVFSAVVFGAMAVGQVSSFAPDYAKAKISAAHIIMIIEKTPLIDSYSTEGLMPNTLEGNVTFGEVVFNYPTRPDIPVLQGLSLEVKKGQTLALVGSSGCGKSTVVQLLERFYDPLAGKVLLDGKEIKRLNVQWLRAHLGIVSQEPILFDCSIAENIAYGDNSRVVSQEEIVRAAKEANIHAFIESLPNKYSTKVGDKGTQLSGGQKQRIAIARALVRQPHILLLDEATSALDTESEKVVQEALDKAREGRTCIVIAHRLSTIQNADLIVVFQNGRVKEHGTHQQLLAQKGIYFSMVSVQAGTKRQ

Row | Activity [1] | Activity [2] | SMILES
1 | is not a substrate [-] | is not a substrate [-] | COc1ccc2c(C(=O)c3cc(OC)c(OC)c(OC)c3)c[nH]c2c1
2 | substrate [+] | substrate [+] | CC(=O)O[C@H]1C(=O)[C@@]2(C)[C@H]([C@H](OC(=O)c3ccccc3)[C@]3(O)C[C@H](OC(=O)[C@H](O)[C@@H](NC(=O)c4ccccc4)c4ccccc4)C(C)=C1C3(C)C)[C@]1(OC(C)=O)CO[C@@H]1C[C@@H]2O [PACLITAXEL]
3 | substrate [+] | substrate [+] | CC[C@]1(O)C[C@H]2CN(CCc3c([nH]c4ccccc34)[C@@](C(=O)OC)(c3cc4c(cc3OC)N(C=O)[C@H]3[C@@](O)(C(=O)OC)[C@H](OC(C)=O)[C@]5(CC)C=CCN6CC[C@]43[C@@H]65)C2)C1 [VINCRISTINE]

Row | SMILES | Activity [1] | Activity [2]
4 | COc1cc2c(c(OC)c1OC)-c1ccc(OC)c(=O)cc1[C@@H](NC(C)=O)CC2 [COLCHICINE] | substrate [+] | substrate [+]
